Reference: US9273095B2, “Antibiotic peptide and preparation method therefor and application therefor” (priority 2011, dated 2016)
Marks after values point to notes of the source that are not given here. Non-standard residues stand in square brackets, D forms with d. Residues, ends and D or L forms follow the SMILES beside them.

Experiments:
[1] = tested on: Candida albicans and Escherichia; test: Therapeutic experiment of injection on mice with multiple mixed infections, survival time; format: in vivo, ICR mice; details: 30 mg/kg, n = 20
Procedure: (§1) There are 60 male and 60 female ICR mice with the weight ranging from 18 g to 22 g. According to their weight, they are randomly divided into 6 groups of 20 mice: blank control group, negative control group, Levofloxacin positive control group, and high, middle and low dose of PL-18 (SEQ ID NO: 1) group. With trinitrophenal marking method, all the mice are raised with ordinary animal feeds in the ordinary animal houses and they can drink water freely. Alternating of light and dark is conducted every 12 hours.
2. Infected Strains: Candida albicans and Escherichia
(§2) PL-18 (SEQ ID NO: 1) freeze-dried powder injection (supplied by Jiangsu ProteLight Pharmaceutical & Biotechnology Co., LTD.), Levofloxacin Hydrochloride and Sodium Chloride Injection (supplied by Yangtze River Pharmaceutical Group) and 0.9% Sodium Chloride Injection (supplied by Chifeng Rongjitang Pharmaceutical CO., Ltd.)
(§3) (1) The preparation of bacterial suspension is the same as above.
(2) The Candida albicans suspension cultured overnight is diluted to 1×10^6CFU/ml with Sodium Chloride and 5×10^5CFU of which is injected into abdominal cavity of every mouse; the Escherichia suspension cultured overnight is diluted to 2×10^8CFU/ml and 1×10^7CFU of which is injected into abdominal cavity of every mouse to make model with mixed infections.
(3) The blank control group is injected with normal saline into their abdominal cavity, the positive control group is injected with Levofloxacin into their abdominal cavity.
(4) Administration: The drugs are administered according to weight right after the model is ready. All the groups except the blank and the infected negative control group are injected with different dosage of different injections through caudal vena twice a day successively for three days, and they are observed for fourteen days.
(§4) (5) Observe death of the animals and record their survival time.

Staphylococcus aureus = test: Therapeutic test of injection on mice with systemic infection, survival time; format: in vivo, ICR mice; details: 30 mg/kg twice a day for three days, n = 10
From the text: as §1, with “30” for “60”, “10” for “20”, “PL-13” for “and high, middle and low dose of PL-18”, “1) high dose group, PL-13 (SEQ ID NO: 1) middle dose group and PL-13 (SEQ ID NO: 1) low dose” for “1)”, “group. Each group is raised in the same plastic case.” for “group.”
(§5) 2. Infected Strains: Pseudomonas aeruginosa and Staphylococcus aureus
as §2, with “injections” for “injection”
as §3
(§6) (2) The Pseudomonas aeruginosa suspension cultured overnight is diluted to 1×10^9CFU/ml. The Staphylococcus aureus suspension cultured overnight is diluted to 1×10^8CFU/ml. They are all applied in reserve.
(§7) (3) Except the blank control group, every other mouse is injected with 0.2 ml Pseudomonas aeruginosa suspension with the concentration of 1×10^9CFU/ml or 0.2 ml Staphylococcus aureus suspension with the concentration of 1×10^8CFU/ml intraperitoneally to make model.
(§8) (4) Administration: Inject the drugs according to weight right after the model is ready. All the groups excepting the blank and the negative infected group are injected with different dosage of different injections through caudal vena twice a day successively for three days, and they are observed for fourteen days.
as §4

Pseudomonas aeruginosa = test: as above; format: in vivo, ICR mice; details: 30 mg/kg twice a day for three days, n = 10
From the text: as §1, with “30” for “60”, “10” for “20”, “PL-13” for “and high, middle and low dose of PL-18”, “1) high dose group, PL-13 (SEQ ID NO: 1) middle dose group and PL-13 (SEQ ID NO: 1) low dose” for “1)”, “group. Each group is raised in the same plastic case.” for “group.”
as §5
as §2, with “injections” for “injection”
as §3, §6, §7, §8, §4

[2] = tested on: red cell suspension from healthy volunteers; test: Hemolytic activity test; format: cell-based, human; details: for Hemolytic activity, absorbancy (OD value) at 570 nm: 4 hours at 37° C., OD higher than 0.1 is hemolytic, n = 3; for hemolytic toxicity (in words): summary of Table 9
Procedure: (1) Samples are serial diluted with sterile PBS to 1000, 500, 250, 125, 64, 32, 16, 8, 4 μg/ml in turn and spread in 96-well plates, 100 μl per orifice.
(2) We use distilled water as positive control, sterile PBS as negative control and blank orifice with 200 μl PBS solution added. Each concentration above is made in triplicate.
(3) We take 3 ml whole blood from healthy volunteers and washed it with sterile PBS three times to prepare fresh 2% concentration red cell suspension. Then we added 100 μl red cell suspension into each orifice and made them cultured for 4 hours at 37° C. in the incubator. After centrifuged by plate-swashing centrifuge, the supernatant liquid is collected and measured absorbancy (OD value) at a wavelength of 570 nm. Then we compared the hemolytic efficiency of these concentrations.
(4) According to the documents standard, OD value which is higher than 0.1 is hemolytic concentration.

| Compound | Hemolytic activity, absorbancy (OD value) at 570 nm ([2]; peptide 7.8125 μg/ml) | Hemolytic activity, absorbancy (OD value) at 570 nm ([2]; peptide 15.625 μg/ml) | Hemolytic activity, absorbancy (OD value) at 570 nm ([2]; peptide 31.25 μg/ml) | Hemolytic activity, absorbancy (OD value) at 570 nm ([2]; peptide 62.5 μg/ml) | Hemolytic activity, absorbancy (OD value) at 570 nm ([2]; peptide 125 μg/ml) | Hemolytic activity, absorbancy (OD value) at 570 nm ([2]; peptide 250 μg/ml) | Hemolytic activity, absorbancy (OD value) at 570 nm ([2]; peptide 500 μg/ml) | Hemolytic activity, absorbancy (OD value) at 570 nm ([2]; peptide 1000 μg/ml) | hemolytic toxicity (in words) [2] | also measured |
| --- | --- | --- | --- | --- | --- | --- | --- | --- | --- | --- |
| C[C@H]1COc2c(N3CCN(C)CC3)c(F)cc3c(=O)c(C(=O)O)cn1c23 [Levofloxacin, levofloxacin, reference compound] | – | – | – | – | – | – | – | – | – | Mean survival Time ([1]; observed fourteen days): 3.9* day; Mortality of mice in different days after infection ([1]; day 1): 8; Mortality of mice in different days after infection ([1]; day 2): 6; Mortality of mice in different days after infection ([1]; day 3): 2; Mortality of mice in different days after infection ([1]; day 4): 0; Mortality of mice in different days after infection ([1]; day 5): 0; Mean survival Time (Staphylococcus aureus; observed fourteen days): 5.4** day; Mortality of mice in different days after infection (Staphylococcus aureus; day 1): 5; Mortality of mice in different days after infection (Staphylococcus aureus; day 2): 2; Mortality of mice in different days after infection (Staphylococcus aureus; day 3): 0; Mortality of mice in different days after infection (Staphylococcus aureus; day 4): 0; Mortality of mice in different days after infection (Staphylococcus aureus; day 5): 0; Mean survival Time (Pseudomonas aeruginosa; observed fourteen days): 6.4** day; Mortality of mice in different days after infection (Pseudomonas aeruginosa; day 1): 4; Mortality of mice in different days after infection (Pseudomonas aeruginosa; day 2): 2; Mortality of mice in different days after infection (Pseudomonas aeruginosa; day 3): 0; Mortality of mice in different days after infection (Pseudomonas aeruginosa; day 4): 0; Mortality of mice in different days after infection (Pseudomonas aeruginosa; day 5): 0 |
| CC[C@@H](C)[C@@H](NC(=O)[C@@H](CCCCN)NC(=O)[C@@H](CO)NC(=O)[C@@H](Cc1ccccc1)NC(=O)[C@@H](CC(C)C)NC(=O)[C@@H](CCCCN)NC(=O)[C@@H](CCC(=O)O)NC(=O)[C@@H](CC(C)C)NC(=O)[C@@H](CCCNC(=N)N)NC(=O)[C@@H](CCCCN)NC(=O)[C@@H](Cc1ccccc1)NC(C)=O)C(=O)N[C@H](Cc1c[nH]c2ccccc12)C(=O)N[C@H](CC(N)=O)C(=O)N[C@H](Cc1c[nH]c2ccccc12)C(=O)N[C@H](CCCCN)C(N)=O [PL-17] (Ac-[dF][dK][dR][dL][dE][dK][dL][dF][dS][dK][dI][dW][dN][dW][dK]-NH2) | 0.033 | 0.056 | 0.063 | 0.065 | 0.078 | 0.082 | 0.152 | 0.339 | little hemolytic toxicity | – |
| Ac-FKKLKKLFSKLWNWK-NH2 [PL-13] | 0.043 | 0.059 | 0.065 | 0.090 | 0.117 | 0.184 | 0.220 | 0.310 | little hemolytic toxicity | – |
